Source: US8653100B2 (AbbVie Inc., priority 2008, dated 2014)
Where a name gives a salt, the structure may show the parent alone. Read-outs that look alike come from different tables or passages of the source.

Legend:
human GlyT1c = human GlyT1c (Homo sapiens (Human), UniProt P48067); assay: [3H]-Glycine uptake into recombinant CHO cells expressing human GlyT1; type: cell-based; settings: hGlyT1c_5_CHO cells, 200 nM [3H]-glycine
Description: [^3H]-Glycine uptake into recombinant CHO cells expressing human GlyT1: Human GlyT1c expressing recombinant hGlyT1c—5_CHO cells were plated at 20,000 cells per well in 96 well Cytostar-T scintillation microplates (Amersham Biosciences) and cultured to sub-confluency for 24 h. […] The plates were placed in a Wallac Microbeta (PerkinElmer) and continuously counted by solid phase scintillation spectrometry during up to 3 hours. […] IC50 calculations were made by four-parametric logistic nonlinear regression analysis (GraphPad Prism) using determinations within the range of linear increase of [^3H]-glycine incorporation between 60 and 120 min.

human GlyT1c transporter = human GlyT1c transporter (Homo sapiens (Human), UniProt P48067); assay: Radioligand binding assay using recombinant CHO cell membranes expressing human GlyT1; settings: read-out: radioligand binding Kiapp
human GlyT1c transporter, sequence (P48067 whole entry): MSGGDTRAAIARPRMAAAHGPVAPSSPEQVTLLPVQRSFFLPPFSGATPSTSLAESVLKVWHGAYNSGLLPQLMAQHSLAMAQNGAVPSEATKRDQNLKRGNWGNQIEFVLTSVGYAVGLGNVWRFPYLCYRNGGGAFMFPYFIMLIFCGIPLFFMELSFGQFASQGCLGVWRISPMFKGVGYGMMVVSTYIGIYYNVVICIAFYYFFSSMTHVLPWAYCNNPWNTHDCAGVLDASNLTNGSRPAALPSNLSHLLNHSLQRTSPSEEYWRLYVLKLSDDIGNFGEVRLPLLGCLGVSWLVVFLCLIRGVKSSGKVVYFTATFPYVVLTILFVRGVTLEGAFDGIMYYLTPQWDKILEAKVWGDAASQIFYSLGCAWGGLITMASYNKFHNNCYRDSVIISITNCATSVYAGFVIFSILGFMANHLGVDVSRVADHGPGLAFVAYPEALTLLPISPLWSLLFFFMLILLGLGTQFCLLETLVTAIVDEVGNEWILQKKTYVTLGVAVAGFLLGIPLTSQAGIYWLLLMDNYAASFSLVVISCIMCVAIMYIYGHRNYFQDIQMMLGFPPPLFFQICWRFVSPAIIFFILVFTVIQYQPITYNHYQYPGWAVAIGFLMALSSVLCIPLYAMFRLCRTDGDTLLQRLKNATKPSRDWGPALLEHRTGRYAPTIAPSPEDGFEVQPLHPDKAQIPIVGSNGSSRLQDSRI
Outline: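 Apparent Ki values were derived by Cheng-Prusoff from one-site IC50 fits of displacement curves. Membranes from recombinant CHO cells (human GlyT1c, 50 μg/ml) were incubated 1 h at room temperature with 0.5 nM [^3H]-(R)-NPTS and test compound (1% DMSO, pH 7.5 buffer), with 10 μM Org24598 for non-specific binding, then filtered and counted.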

[1] = radioligand [3H]-(R)-NPTS (examples 1-19, 22-52, 54-87)

human GlyT1c, sequence (P48067 whole entry): as above

Compound	IC50 (human GlyT1c)	Ki (human GlyT1c transporter; examples 88-204, radioligand not specified by footnote)	Ki (human GlyT1c transporter; [1])	IC50 (human GlyT1c; hydrochloride)
CCCS(=O)(=O)NCCOc1ccc2c(c1)C(C1(c3ccc(Cl)cc3)CCC1)NCC2 (centres unmarked) [Example 4, Propane-1-sulfonic acid (2-{1-[1-(4-chloro-phenyl)-cyclobutyl]-1,2,3,4-tetrahydro-isoquinolin-7-yloxy}-ethyl)-amide hydrochloride]	≤ 0.1 µM		≤ 0.1 µM	
CCS(=O)(=O)NCCOc1ccc2c(c1)C(C1(c3ccc(Cl)cc3)CCC1)NCC2 (centres unmarked) [Example 7, Ethanesulfonic acid (2-{1-[1-(4-chloro-phenyl)-cyclobutyl]-1,2,3,4-tetrahydro-isoquinolin-7-yloxy}-ethyl)-amide hydrochloride]	≤ 0.1 µM		≤ 0.1 µM	
CC(C)CS(=O)(=O)NCCOc1ccc2c(c1)C(C1(c3ccc(Cl)cc3)CCC1)NCC2 (centres unmarked) [Example 8, 2-Methyl-propane-1-sulfonic acid (2-{1-[1-(4-chloro-phenyl)-cyclobutyl]-1,2,3,4-tetrahydro-isoquinolin-7-yloxy}-ethyl)-amide hydrochloride]	≤ 0.1 µM		≤ 0.1 µM	
O=S(=O)(NCCOc1ccc2c(c1)C(C1(c3ccc(Cl)cc3)CCC1)NCC2)c1ccc2ccccc2c1 (centres unmarked) [Example 9, Naphthalene-2-sulfonic acid (2-{1-[1-(4-chloro-phenyl)-cyclobutyl]-1,2,3,4-tetrahydro-isoquinolin-7-yloxy}-ethyl)-amide hydrochloride]	≤ 10 µM		≤ 10 µM	
O=S(=O)(NCCOc1ccc2c(c1)C(C1(c3ccc(Cl)cc3)CCC1)NCC2)c1cccnc1 (centres unmarked) [Example 10, Pyridine-3-sulfonic acid (2-{1-[1-(4-chloro-phenyl)-cyclobutyl]-1,2,3,4-tetrahydro-isoquinolin-7-yloxy}-ethyl)-amide hydrochloride]			≤ 0.1 µM	≤ 0.1 µM
O=S(=O)(NCCOc1cc2c(cc1F)CCNC2C1(c2ccc(Cl)cc2)CCC1)c1cccnc1 (centres unmarked) [Example 14, Pyridine-3-sulfonic acid (2-{1-[1-(4-chloro-phenyl)-cyclobutyl]-6-fluoro-1,2,3,4-tetrahydro-isoquinolin-7-yloxy}-ethyl)-amide hydrochloride]	≤ 0.1 µM		≤ 0.1 µM	
CCCS(=O)(=O)NCCOc1cc2c(cc1F)CCNC2C1(c2ccc(Cl)cc2)CCC1 (centres unmarked) [Example 15, Propane-1-sulfonic acid (2-{1-[1-(4-chloro-phenyl)-cyclobutyl]-6-fluoro-1,2,3,4-tetrahydro-isoquinolin-7-yloxy}-ethyl)-amide hydrochloride]	≤ 0.1 µM		≤ 0.1 µM	
CCCCS(=O)(=O)NCCOc1ccc2c(c1)C(C1(c3ccc(Cl)cc3)CCC1)NCC2 (centres unmarked) [Example 16, Butane-1-sulfonic acid (2-{1-[1-(4-chloro-phenyl)-cyclobutyl]-1,2,3,4-tetrahydro-isoquinolin-7-yloxy}-ethyl)-amide hydrochloride]	≤ 0.1 µM		≤ 0.1 µM	
COc1ccccc1S(=O)(=O)NCCOc1ccc2c(c1)C(C1(c3ccc(Cl)cc3)CCC1)NCC2 (centres unmarked) [Example 18, N-(2-{1-[1-(4-Chloro-phenyl)-cyclobutyl]-1,2,3,4-tetrahydro-isoquinolin-7-yloxy}-ethyl)-2-methoxy-benzenesulfonamide hydrochloride]	≤ 1 µM		≤ 10 µM	
COc1cccc(S(=O)(=O)NCCOc2ccc3c(c2)C(C2(c4ccc(Cl)cc4)CCC2)NCC3)c1 (centres unmarked) [Example 19, N-(2-{1-[1-(4-Chloro-phenyl)-cyclobutyl]-1,2,3,4-tetrahydro-isoquinolin-7-yloxy}-ethyl)-3-methoxy-benzenesulfonamide hydrochloride]	≤ 10 µM		≤ 10 µM	
CCCS(=O)(=O)NCCOc1ccc2c(c1)C(C1(c3cccc(Cl)c3)CCC1)N(CC#N)CC2 (centres unmarked) [Example 77, N-[2-({1-[1-(3-Chlorophenyl)cyclobutyl]-2-(cyanomethyl)-1,2,3,4-tetrahydroisoquinolin-7-yl}oxy)ethyl]propane-1-sulfonamide]	≤ 1 µM			
CCCS(=O)(=O)NCCOc1ccc2c(c1)C(C1(c3cccc(Cl)c3)CCC1)N(CCN)CC2 (centres unmarked) [Example 78, N-[2-({2-(2-Aminoethyl)-1-[1-(3-chlorophenyl)cyclobutyl]-1,2,3,4-tetrahydroisoquinolin-7-yl}oxy)ethyl]propane-1-sulfonamide bis(trifluoroacetate)]	≤ 10 µM			
CCCS(=O)(=O)NCCOc1ccc2c(c1)C(C1(c3ccc(F)cc3)CCC1)N(c1ncc[nH]1)CC2 (centres unmarked) [Example 79, N-[2-({1-[1-(4-Fluorophenyl)cyclobutyl]-2-(1H-imidazol-2-yl)-1,2,3,4-tetrahydroisoquinolin-7-yl}oxy)ethyl]propane-1-sulfonamide]	≤ 1 µM			
O=S(=O)(CCCOc1ccc2c(c1)C(C1(c3ccc(Cl)cc3)CCC1)NCC2)N1CCOCC1 (centres unmarked) [Example 81, 1-[1-(4-Chlorophenyl)cyclobutyl]-7-[3-(morpholin-4-ylsulfonyl)propoxy]-1,2,3,4-tetrahydroisoquinoline hydrochloride]	≤ 10 µM			
CCCNS(=O)(=O)CCCOc1ccc2c(c1)C(C1(c3ccc(Cl)cc3)CCC1)NCC2 (centres unmarked) [Example 82, 3-({1-[1-(4-Chlorophenyl)cyclobutyl]-1,2,3,4-tetrahydroisoquinolin-7-yl}oxy)-N-propylpropane-1-sulfonamide hydrochloride]	≤ 1 µM			
O=S(=O)(NCCOc1ccc2c(c1)C(C1(c3ccc(Cl)cc3)CC1)NCC2)c1cccnc1 (centres unmarked) [Example 85, N-[2-({1-[1-(4-Chlorophenyl)cyclopropyl]-1,2,3,4-tetrahydroisoquinolin-7-yl}oxy)ethyl]pyridine-3-sulfonamide]	≤ 0.1 µM			
CCCS(=O)(=O)NCCOc1ccc2c(c1)C(C1(c3ccc(Cl)cc3)CC1)NCC2 (centres unmarked) [Example 87, N-[2-({1-[1-(4-Chlorophenyl)cyclopropyl]-1,2,3,4-tetrahydroisoquinolin-7-yl}oxy)ethyl]propane-1-sulfonamide hydrochloride]	≤ 0.1 µM			

The next lines start with results.

IC50 (human GlyT1c)	Ki (human GlyT1c transporter; examples 88-204, radioligand not specified by footnote)	Ki (human GlyT1c transporter; [1])	Compound	IC50 (human GlyT1c; hydrochloride)
≤ 10 µM	≤ 0.1 µM		NCCS(=O)(=O)NCCOc1ccc2c(c1)C(C1(c3ccc(Cl)cc3)CCC1)NCC2 (single isomer, unassigned) [Example 152, 2-Amino-N-[2-({1-[1-(4-Chlorophenyl)cyclobutyl]-1,2,3,4-tetrahydroisoquinolin-7-yl}oxy)ethyl]ethanesulfonamide dihydrochloride]	
≤ 10 µM		≤ 10 µM	O=C(NCCOc1ccc2c(c1)C(C1(c3ccc(Cl)cc3)CCC1)NCC2)c1ccc(Cl)cc1Cl (centres unmarked) [Example 1, 2,4-Dichloro-N-(2-{1-[1-(4-chloro-phenyl)-cyclobutyl]-1,2,3,4-tetrahydro-isoquinolin-7-yloxy}-ethyl)-benzamide]	
≤ 0.1 µM		≤ 0.1 µM	CS(=O)(=O)NCCOc1ccc2c(c1)C(C1(c3ccc(Cl)cc3)CCC1)NCC2 (centres unmarked) [Example 2, N-(2-{1-[1-(4-Chloro-phenyl)-cyclobutyl]-1,2,3,4-tetrahydro-isoquinolin-7-yloxy}-ethyl)-methanesulfonamide]	
≤ 10 µM		≤ 10 µM	O=S(=O)(NCCOc1ccc2c(c1)C(C1(c3ccc(Cl)cc3)CCC1)NCC2)C(F)(F)F (centres unmarked) [Example 11, N-(2-{1-[1-(4-Chloro-phenyl)-cyclobutyl]-1,2,3,4-tetrahydro-isoquinolin-7-yloxy}-ethyl)-C,C,C-trifluoro-methanesulfonamide]	
≤ 0.1 µM		≤ 1 µM	CS(=O)(=O)NCCOc1cc2c(cc1F)CCNC2C1(c2ccc(Cl)cc2)CCC1 (centres unmarked) [Example 12, N-(2-{1-[1-(4-Chloro-phenyl)-cyclobutyl]-6-fluoro-1,2,3,4-tetrahydro-isoquinolin-7-yloxy}-ethyl)-methanesulfonamide hydrochloride]	
≤ 1 µM		≤ 1 µM	O=S(=O)(NCCOc1cc2c(cc1F)CCNC2C1(c2ccc(Cl)cc2)CCC1)c1ccccc1 (centres unmarked) [Example 13, N-(2-{1-[1-(4-Chloro-phenyl)-cyclobutyl]-6-fluoro-1,2,3,4-tetrahydro-isoquinolin-7-yloxy}-ethyl)-benzenesulfonamide hydrochloride]	
≤ 0.1 µM		≤ 1 µM	O=S(=O)(NCCOc1ccc2c(c1)C(C1(c3ccc(Cl)cc3)CCC1)NCC2)c1cccs1 (centres unmarked) [Example 17, Thiophene-2-sulfonic acid (2-{1-[1-(4-chloro-phenyl)-cyclobutyl]-1,2,3,4-tetrahydro-isoquinolin-7-yloxy}-ethyl)-amide hydrochloride]	
≤ 0.1 µM			CCCS(=O)(=O)NCCOc1ccc2c(c1)C(C1(c3ccc(Cl)cc3)CCC1)N(CC#N)CC2 (centres unmarked) [Example 80, N-[2-({1-[1-(4-cChlorophenyl)cyclobutyl]-2-(cyanomethyl)-1,2,3,4-tetrahydroisoquinolin-7-yl}oxy)ethyl]propane-1-sulfonamide hydrochloride]	
≤ 0.1 µM			Cn1cc(S(=O)(=O)NCCOc2ccc3c(c2)C(C2(c4ccc(Cl)cc4)CC2)NCC3)cn1 (centres unmarked) [Example 86, N-[2-({1-[1-(4-Chlorophenyl)cyclopropyl]-1,2,3,4-tetrahydroisoquinolin-7-yl}oxy)ethyl]-1-methyl-1H-pyrazole-4-sulfonamide]	
≤ 1 µM			NCCS(=O)(=O)NCCOc1ccc2c(c1)C(C1(c3ccc(Cl)cc3)CCC1)NCC2 (centres unmarked) [Example 154, 2-Amino-N-[2-({1-[1-(4-chlorophenyl)cyclobutyl]-1,2,3,4-tetrahydroisoquinolin-7-yl}oxy)ethyl]ethanesulfonamide]	
